# Reference: patent US20120244567A1, “HUMAN EMBRYONIC STEM CELLS FOR HIGH THROUGHOUT DRUG SCREENING” (BUCK INSTITUTE FOR RESEARCH ON AGING, priority 2009, published 2012)
# Structures can show the parent of a compound that is named as a salt.
# Test system: dopaminergic neurons
# Method: RNAs isolated from NSCs and neurons with and without drug treatments were hybridized to Illumina HumanRef-8 BeadChip (Illumina, Inc., San Diego, Calif., performed by Microarray core facility at the Burnham Institute for Medical Research). The Illumina array data were normalized by the quantile method, and then transformed log 2 ratio values for a zero mean for expression values of each gene across all samples. The statistical and bioinformatics analyses were conducted by using R and the bioconductor package (www.bioconductor.org). The gene set enrichment analysis was conducted using the GSEA software (www.broad.mit.edu/gsea).
# The comparative results are then measured by a non-parametric, running sum statistic termed the enrichment score. The enrichment score significance is assessed by 1,000 permutation tests to compute the enrichment p-value.
# [1] = enriched in treated DA neurons, Nom P-Val 0.910714
# [2] = enriched in treated DA neurons, Nom P-Val 1
# [3] = enriched in untreated DA neurons, NOM p-val 0
# [4] = enriched in untreated DA neurons, NOM p-val 0.111111
# [5] = enriched in untreated DA neurons, NOM p-val 0.166667
# [6] = enriched in untreated DA neurons, NOM p-val 0.444444
# [7] = enriched in untreated DA neurons, NOM p-val 0.818182
# [8] = enriched in untreated DA neurons, NOM p-val 0.90625
# [9] = enriched in untreated DA neurons, NOM p-val 0.955556
# [10] = enriched in untreated DA neurons, NOM p-val 1
compound,measurement,setting,value
CCCCc1oc2ccccc2c1C(=O)c1cc(I)c(OCCN(CC)CC)c(I)c1 [Amiodarone Hydrochloride],Nes: Transferase Activity Transferring Glycosyl Groups,"enriched in treated DA neurons, Nom P-Val 0.864865",0.8297
same,Nes: Cation Binding,"enriched in treated DA neurons, Nom P-Val 0.894737",0.7825
same,Nes: Calmodulin Binding,[1],0.6917
same,Nes: Protein N Terminus Binding,[1],0.7167
same,Nes: Guanyl Nucleotide Binding,"enriched in treated DA neurons, Nom P-Val 0.913044",0.72
same,Nes: Hydrolase Activity Acting On Ester Bonds,"enriched in treated DA neurons, Nom P-Val 0.924051",0.7747
same,Nes: Transcription Corepressor Activity,"enriched in treated DA neurons, Nom P-Val 0.942857",0.6958
same,Nes: Atpase Activity Coupled To Transmembrane Movement Of Ions,"enriched in treated DA neurons, Nom P-Val 0.944444",0.5935
same,Nes: Structural Molecule Activity,"enriched in treated DA neurons, Nom P-Val 0.963415",0.7324
same,Nes: Transferase Activity Transferring Alkyl Or Aryl Other Than Methyl Groups,"enriched in treated DA neurons, Nom P-Val 0.968254",0.6284
same,Nes: Actin Filament Binding,"enriched in treated DA neurons, Nom P-Val 0.983871",0.3138
same,Nes: Mrna Binding,"enriched in treated DA neurons, Nom P-Val 0.984375",0.4087
same,Nes: Transcription Factor Binding,"enriched in treated DA neurons, Nom P-Val 0.987013",0.742
same,Nes: Phosphoric Ester Hydrolase Activity,"enriched in treated DA neurons, Nom P-Val 0.9875",0.6959
same,Nes: Atpase Activity,[2],0.6528
same,Nes: Rna Binding,[2],0.4406
same,Nes: Translation Initiation Factor Activity,[2],0.3311
same,NES: Gtpase Binding,[3],−1.62
same,NES: Hydrolase Activity Hydrolyzing O Glycosyl Compounds,[3],−1.479
same,NES: Ras Gtpase Binding,"enriched in untreated DA neurons, NOM p-val 0.02",−1.585
same,NES: Cation Channel Activity,"enriched in untreated DA neurons, NOM p-val 0.027778",−1.394
same,NES: Small Gtpase Binding,"enriched in untreated DA neurons, NOM p-val 0.047619",−1.4967
same,NES: Gated Channel Activity,"enriched in untreated DA neurons, NOM p-val 0.051282",−1.491
same,NES: Ion Channel Activity,"enriched in untreated DA neurons, NOM p-val 0.060606",−1.2
same,NES: Hydrolase Activity Acting On Glycosyl Bonds,"enriched in untreated DA neurons, NOM p-val 0.08",−1.414
same,NES: Nucleobase Nucleoside Nucleotide Kinase Activity,"enriched in untreated DA neurons, NOM p-val 0.081081",−1.368
same,NES: Voltage Gated Channel Activity,"enriched in untreated DA neurons, NOM p-val 0.085714",−1.284
same,NES: Kinase Binding,"enriched in untreated DA neurons, NOM p-val 0.1",−1.316
same,NES: Exopeptidase Activity,"enriched in untreated DA neurons, NOM p-val 0.105263",−1.3223
same,NES: Metal Ion Transmembrane Transporter Activity,[4],−1.269
same,NES: Potassium Channel Activity,[4],−1.325
same,NES: Substrate Specific Channel Activity,"enriched in untreated DA neurons, NOM p-val 0.129032",−1.221
same,NES: Chromatin Binding,"enriched in untreated DA neurons, NOM p-val 0.142857",−1.239
same,NES: Gtpase Activator Activity,"enriched in untreated DA neurons, NOM p-val 0.157895",−1.222
same,NES: Phosphoprotein Phosphatase Activity,"enriched in untreated DA neurons, NOM p-val 0.162162",−1.15
same,NES: Electron Carrier Activity,[5],−1.204
same,NES: Voltage Gated Cation Channel Activity,[5],−1.174
same,NES: Transition Metal Ion Binding,"enriched in untreated DA neurons, NOM p-val 0.171429",−1.098
same,NES: Protein C Terminus Binding,"enriched in untreated DA neurons, NOM p-val 0.212121",−1.195
same,NES: Helicase Activity,"enriched in untreated DA neurons, NOM p-val 0.216216",−1.187
same,NES: Protein Complex Binding,"enriched in untreated DA neurons, NOM p-val 0.222222",−1.133
same,NES: Enzyme Binding,"enriched in untreated DA neurons, NOM p-val 0.233333",−1.04
same,NES: Ras Gtpase Activator Activity,"enriched in untreated DA neurons, NOM p-val 0.243902",−1.144
same,NES: S Adenosylmethionine Dependent Methyltransferase Activity,"enriched in untreated DA neurons, NOM p-val 0.25",−1.2358
same,NES: Ligand Gated Channel Activity,"enriched in untreated DA neurons, NOM p-val 0.263158",−1.236
same,NES: Cation Transmembrane Transporter Activity,"enriched in untreated DA neurons, NOM p-val 0.291667",−1.08
same,NES: Rho Gtpase Activator Activity,"enriched in untreated DA neurons, NOM p-val 0.297297",−1.16
same,NES: Rna Dependent Atpase Activity,"enriched in untreated DA neurons, NOM p-val 0.318182",−1.11
same,NES: Atp Dependent Helicase Activity,"enriched in untreated DA neurons, NOM p-val 0.324324",−1.133
same,NES: Methyltransferase Activity,"enriched in untreated DA neurons, NOM p-val 0.340909",−1.089
same,NES: Auxiliary Transport Protein Activity,"enriched in untreated DA neurons, NOM p-val 0.347826",−1.141
same,NES: Transcription Factor Activity,"enriched in untreated DA neurons, NOM p-val 0.35",−1.022
same,NES: Rna Helicase Activity,"enriched in untreated DA neurons, NOM p-val 0.365854",−1.053
same,NES: Growth Factor Activity,"enriched in untreated DA neurons, NOM p-val 0.367347",−1.079
same,NES: Small Gtpase Regulator Activity,"enriched in untreated DA neurons, NOM p-val 0.387097",−1.038
same,NES: Phosphotransferase Activity Phosphate Group As Acceptor,"enriched in untreated DA neurons, NOM p-val 0.431818",−1.058
same,NES: Protein Tyrosine Phosphatase Activity,"enriched in untreated DA neurons, NOM p-val 0.432432",−1.019
same,NES: Peptidase Activity,[6],−0.9811
same,NES: Tubulin Binding,[6],−0.9894
same,NES: Cytokine Binding,"enriched in untreated DA neurons, NOM p-val 0.459459",−0.9644
same,NES: Gtpase Regulator Activity,"enriched in untreated DA neurons, NOM p-val 0.461538",−0.9685
same,NES: Actin Binding,"enriched in untreated DA neurons, NOM p-val 0.464286",−1.007
same,NES: Transferase Activity Transferring One Carbon Groups,"enriched in untreated DA neurons, NOM p-val 0.466667",−0.9965
same,NES: Receptor Binding,"enriched in untreated DA neurons, NOM p-val 0.47619",−0.9865
same,NES: Protein Serine Threonine Phosphatase Activity,"enriched in untreated DA neurons, NOM p-val 0.48718",−0.9907
same,NES: Polysaccharide Binding,"enriched in untreated DA neurons, NOM p-val 0.5",−0.9231
same,NES: Atp Dependent Rna Helicase Activity,"enriched in untreated DA neurons, NOM p-val 0.52381",−1.022
same,NES: Sh3 Sh2 Adaptor Activity,"enriched in untreated DA neurons, NOM p-val 0.542857",−0.8755
same,NES: Pattern Binding,"enriched in untreated DA neurons, NOM p-val 0.567568",−0.9438
same,NES: Glycosaminoglycan Binding,"enriched in untreated DA neurons, NOM p-val 0.571429",−0.9097
same,NES: Phosphoric Monoester Hydrolase Activity,"enriched in untreated DA neurons, NOM p-val 0.612903",−0.9735
same,NES: Hydrolase Activity Acting On Carbon Nitrogen But Not Peptide Bonds,"enriched in untreated DA neurons, NOM p-val 0.634146",−0.8501
same,NES: Cofactor Binding,"enriched in untreated DA neurons, NOM p-val 0.636364",−0.8571
same,NES: Protein Tyrosine Kinase Activity,"enriched in untreated DA neurons, NOM p-val 0.657143",−0.8381
same,NES: Oxidoreductase Activity Go 0016705,"enriched in untreated DA neurons, NOM p-val 0.675676",−0.8606
same,NES: Growth Factor Binding,"enriched in untreated DA neurons, NOM p-val 0.705882",−0.8342
same,NES: Signal Sequence Binding,"enriched in untreated DA neurons, NOM p-val 0.707317",−0.8186
same,NES: Cysteine Type Peptidase Activity,"enriched in untreated DA neurons, NOM p-val 0.714286",−0.844
same,NES: Dna Dependent Atpase Activity,"enriched in untreated DA neurons, NOM p-val 0.783784",−0.8332
same,NES: Cysteine Type Endopeptidase Activity,[7],−0.8093
same,NES: Oxidoreductase Activity,[7],−0.9148
same,NES: Organic Acid Transmembrane Transporter Activity,"enriched in untreated DA neurons, NOM p-val 0.833333",−0.7234
same,NES: Lipid Binding,"enriched in untreated DA neurons, NOM p-val 0.852941",−0.7964
same,NES: Ribonuclease Activity,"enriched in untreated DA neurons, NOM p-val 0.875",−0.6173
same,NES: Protein Kinase Regulator Activity,"enriched in untreated DA neurons, NOM p-val 0.885714",−0.7344
same,NES: Rna Splicing Factor Activity Transesterification Mechanism,"enriched in untreated DA neurons, NOM p-val 0.891892",−0.5675
same,NES: Specific Rna Polymerase Ii Transcription Factor Activity,"enriched in untreated DA neurons, NOM p-val 0.904762",−0.6412
same,NES: Isomerase Activity,[8],−0.6048
same,NES: Transcription Activator Activity,[8],−0.8411
same,NES: Kinase Regulator Activity,"enriched in untreated DA neurons, NOM p-val 0.911765",−0.6989
same,NES: Phospholipid Binding,"enriched in untreated DA neurons, NOM p-val 0.914894",−0.6869
same,NES: Atpase Activity Coupled,"enriched in untreated DA neurons, NOM p-val 0.925926",−0.7071
same,NES: Carboxylic Acid Transmembrane Transporter Activity,"enriched in untreated DA neurons, NOM p-val 0.947368",−0.696
same,NES: Phosphoinositide Binding,"enriched in untreated DA neurons, NOM p-val 0.953488",−0.5604
same,NES: Amino Acid Transmembrane Transporter Activity,[9],−0.4938
same,NES: Serine Hydrolase Activity,[9],−0.6304
same,NES: Hormone Receptor Binding,"enriched in untreated DA neurons, NOM p-val 0.969697",−0.4774
same,NES: Protein Heterodimerization Activity,"enriched in untreated DA neurons, NOM p-val 0.971429",−0.7909
same,NES: Oxidoreductase Activity Acting On Nadh Or Nadph,"enriched in untreated DA neurons, NOM p-val 0.975",−0.4995
same,NES: Serine Type Peptidase Activity,"enriched in untreated DA neurons, NOM p-val 0.97561",−0.6529
same,NES: Amine Transmembrane Transporter Activity,[10],−0.4108
same,NES: Nucleotidyltransferase Activity,[10],−0.497
same,NES: Structural Constituent Of Ribosome,[10],−0.2676
same,NES: Serine Type Endopeptidase Activity,"enriched in untreated DA neurons, NOM p-val […]",−0.6588
